From patent US20240043699A1, “DISPERSION AND COATINGS DERIVED THEREFROM” (UNIVERSITY OF MASSACHUSETTS, priority 2022, published 2024)

Experiment: Krafft Temperature from electrical conductivity in water at various temperatures
Format: physicochemical
Conditions: electrical conductivity vs. temperature, sulfate
Method: In some embodiments, the surfactants useful for the present disclosure can have a high Krafft temperature. For example, exemplary surfactants can have a Krafft temperature of at least 50° C. […] Krafft temperature can be determined by, for example, measuring electrical conductivity in water at various temperatures, where the Krafft temperature is taken to be the inflection point when conductivity is plotted against temperature.
Krafft Temperature, the temperature at which an ionic surfactant begins to form micelles in water, is marked by a significant increase in solubility and therefore electrical conductivity for ionic surfactants. Electrical conductivities of the HMW Surfactant species were measured in water at various temperatures to determine Krafft Temperature.

CCCCCCCCCCCCOS(=O)(=O)[O-].[Na+] [sodium dodecyl sulfate]
Krafft Temperature (listed as SDS): 15 °C
Krafft Temperature: roughly 15 °C
